In patent US20150218172A1, “Pyrrolo[2,3-D]Pyrimidine Tropomyosin-Related Kinase Inhibitors” (PFIZER LIMITED, priority 2012, published 2015):

Molecular target: T1, TrkA (Homo sapiens, UniProt P04629)
T1 construct: aa 441-796; His; purchased Invitrogen PV3144
Experiment: Isolated TRK enzyme assay (HTRF KinEASE-TK kit), PV3144 TrkA enzyme assay
Format: biochemical
Conditions: PV3144 TrkA enzyme assay, recombinant His-tagged cytoplasmic domain aa 441-796, 4 nM enzyme, 40 uM ATP; arithmetic mean where more than one reading; read-out: Trka enzyme (IC50)
In short: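 Recombinant His-tagged cytoplasmic domain of human TrkA, preactivated with ATP for 20 min, then 20 min with compound before biotinylated TK substrate (1 uM final) at room temperature. HTRF read at 665/620 nm; % inhibition normalised to reference-compound and DMSO controls, IC50 from sigmoid fit, mean of replicates.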

T1 sequence (P04629 441-796): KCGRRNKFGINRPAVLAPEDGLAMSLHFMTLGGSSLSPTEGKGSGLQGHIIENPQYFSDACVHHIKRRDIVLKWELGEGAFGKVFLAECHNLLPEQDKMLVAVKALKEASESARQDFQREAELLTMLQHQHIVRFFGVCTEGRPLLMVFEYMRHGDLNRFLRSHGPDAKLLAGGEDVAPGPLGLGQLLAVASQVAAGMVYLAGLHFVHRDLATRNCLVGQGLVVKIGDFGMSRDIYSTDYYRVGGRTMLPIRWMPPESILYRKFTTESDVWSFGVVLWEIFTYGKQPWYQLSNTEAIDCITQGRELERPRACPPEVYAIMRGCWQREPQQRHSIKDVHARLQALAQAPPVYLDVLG

IC50 [nM] | Compound
44.5 | CC(C)n1cc(C(=O)c2cc(NC(=O)Cn3cc(C4CC4)nn3)ccn2)c2cnc(N)nc21 [Example 91, N-(2-{[2-amino-7-(propan-2-yl)-7H-pyrrolo[2,3-d]pyrimidin-5-yl]carbonyl}pyridin-4-yl)-2-(4-cyclopropyl-1H-1,2,3-triazol-1-yl)acetamide]
2190 | O=C(Cc1ccc(Cl)cn1)Nc1ccnc(C(=O)c2cn(C(CO)CO)c3ncncc23)c1 [Example 100, 2-(5-chloropyridin-2-yl)-N-(2-{[7-(1,3-dihydroxypropan-2-yl)-7H-pyrrolo[2,3-d]pyrimidin-5-yl]carbonyl}pyridin-4-yl)acetamide]
617 | Cc1cc(C)n(CC(=O)Nc2cc(C(=O)c3cn(CC4(O)CC4)c4ncncc34)ccn2)n1 [Example 177, 2-(3,5-Dimethyl-1H-pyrazol-1-yl)-N-[4-({7-[(1-hydroxycyclopropyl)methyl]-7H-pyrrolo[2,3-d]pyrimidin-5-yl}carbonyl)pyridin-2-yl]acetamide]
484 | O=C(Cc1ccc(F)cc1)Nc1cc(C(=O)c2cn(CCO)c3ncncc23)ccn1 [Example 145, 2-(4-fluorophenyl)-N-(4-{[7-(2-hydroxyethyl)-7H-pyrrolo[2,3-d]pyrimidin-5-yl]carbonyl}pyridin-2-yl)acetamide]
1110 | CS(=O)(=O)c1cccc(CC(=O)Nc2cc(C(=O)c3cn(CCO)c4ncncc34)ccn2)c1 [Example 131, N-(4-{[7-(2-hydroxyethyl)-7H-pyrrolo[2,3-d]pyrimidin-5-yl]carbonyl}pyridin-2-yl)-2-[3-(methylsulfonyl)phenyl]acetamide]
467 | CC(CO)(CO)n1cc(C(=O)c2cc(NC(=O)Cc3ccc(C#N)cc3)ccn2)c2cncnc21 [Example 107, 2-(4-cyanophenyl)-N-(2-{[7-(1,3-dihydroxy-2-methylpropan-2-yl)-7H-pyrrolo[2,3-d]pyrimidin-5-yl]carbonyl}pyridin-4-yl)acetamide]
18.6 | CC(C)n1cc(C(=O)c2ccnc(NC(=O)Cc3ccc(OC(F)(F)F)cc3)c2)c2cncnc21 [Example 120, N-(4-{[7-(propan-2-yl)-7H-pyrrolo[2,3-d]pyrimidin-5-yl]carbonyl}pyridin-2-yl)-2-[4-(trifluoromethoxy)phenyl]acetamide]
922 | O=C(Cc1ccc(C(F)(F)F)c(F)c1)Nc1ccnc(C(=O)c2cn(C(CO)CO)c3ncncc23)c1 [Example 94, N-(2-{[7-(1,3-dihydroxypropan-2-yl)-7H-pyrrolo[2,3-d]pyrimidin-5-yl]carbonyl}pyridin-4-yl)-2-[3-fluoro-4-(trifluoromethyl)phenyl]acetamide]
4.24 | CC(C)n1cc(C(=O)c2ccnc(NC(=O)Cc3ccc(C(F)(F)F)cc3)c2)c2cncnc21 [Example 122, N-(4-{[7-(propan-2-yl)-7H-pyrrolo[2,3-d]pyrimidin-5-yl]carbonyl}pyridin-2-yl)-2-[4-(trifluoromethyl)phenyl]acetamide]
223 | O=C(Cc1ccc(F)cc1F)Nc1cc(C(=O)c2cn(CCO)c3ncncc23)ccn1 [Example 140, 2-(2,4-difluorophenyl)-N-(4-{[7-(2-hydroxyethyl)-7H-pyrrolo[2,3-d]pyrimidin-5-yl]carbonyl}pyridin-2-yl)acetamide]
1550 | COCc1cn(CC(=O)Nc2cc(C(=O)c3cn(C(C)C)c4ncncc34)ccn2)nn1 [Example 117, 2-[4-(methoxymethyl)-1H-1,2,3-triazol-1-yl]-N-(4-{[7-(propan-2-yl)-7H-pyrrolo[2,3-d]pyrimidin-5-yl]carbonyl}pyridin-2-yl)acetamide]
85.3 | CC(C)n1cc(C(=O)c2ccnc(NC(=O)Cc3ccc(Cl)cc3)c2)c2cncnc21 [Example 150, 2-(4-chlorophenyl)-N-(4-{[7-(propan-2-yl)-7H-pyrrolo[2,3-d]pyrimidin-5-yl]carbonyl}pyridin-2-yl)acetamide]
3620 | CC(C)n1cc(C(=O)c2ccnc(NC(=O)Cc3ccccn3)c2)c2cncnc21 [Example 163, N-(4-{[7-(propan-2-yl)-7H-pyrrolo[2,3-d]pyrimidin-5-yl]carbonyl}pyridin-2-yl)-2-(pyridin-2-yl)acetamide]
31.8 | CC(C)(CO)n1cc(C(=O)c2ccnc(NC(=O)Cc3ccc(C#N)cc3)c2)c2cncnc21 [Example 111, 2-(4-cyanophenyl)-N-(4-{[7-(1-hydroxy-2-methylpropan-2-yl)-7H-pyrrolo[2,3-d]pyrimidin-5-yl]carbonyl}pyridin-2-yl)acetamide]
16.2 | Cc1cc(C(F)(F)F)nn1CC(=O)Nc1cc(C(=O)c2cn(C(C)C)c3ncncc23)ccn1 [Example 147, 2-[5-methyl-3-(trifluoromethyl)-1H-pyrazol-1-yl]-N-(4-{[7-(propan-2-yl)-7H-pyrrolo[2,3-d]pyrimidin-5-yl]carbonyl}pyridin-2-yl)acetamide]
682 | Cc1cc(C)n(CC(=O)Nc2cc(C(=O)c3cn(C(CO)CO)c4ncncc34)ccn2)n1 [Example 112, 2-(3,5-Dimethyl-1H-pyrazol-1-yl)-N-[4-({7-[2-hydroxy-1-(hydroxymethyl)ethyl]-7H-pyrrolo[2,3-d]pyrimidin-5-yl}carbonyl)pyridin-2-yl]acetamide]
131 | CC(C)n1cc(C(=O)c2cc(NC(=O)Cn3cc(C(F)(F)F)nn3)ccn2)c2cncnc21 [Example 79, N-(2-{[7-(propan-2-yl)-7H-pyrrolo[2,3-d]pyrimidin-5-yl]carbonyl}pyridin-4-yl)-2-[4-(trifluoromethyl)-1H-1,2,3-triazol-1-yl]acetamide]

Further lines, the compound ahead of its results:

Compound | IC50 [nM]
CC(C)n1cc(C(=O)c2cc(NC(=O)Cc3ccc(Cl)cc3)ncn2)c2cncnc21 [Example 65, 2-(4-chlorophenyl)-N-(6-{[7-(propan-2-yl)-7H-pyrrolo[2,3-d]pyrimidin-5-yl]carbonyl}pyrimidin-4-yl)acetamide] | 23.4
C[C@@H](CO)n1cc(C(=O)c2cc(NC(=O)Cc3cccc(C(F)(F)F)c3)ccn2)c2cncnc21 [Example 24, N-[2-({7-[(2S)-1-hydroxypropan-2-yl]-7H-pyrrolo[2,3-d]pyrimidin-5-yl}carbonyl)pyridin-4-yl]-2-[3-(trifluoromethyl)phenyl]acetamide] | 59.8
O=C(Cc1ccc(Cl)cc1)Nc1cc(C(=O)c2cn([C@H]3CC[C@@H](O)CC3)c3ncncc23)ccn1 [Example 6, 2-(4-chlorophenyl)-N-(4-{[7-(cis-4-hydroxycyclohexyl)-7H-pyrrolo[2,3-d]pyrimidin-5-yl]carbonyl}pyridin-2-yl)acetamide] | 21.3
Cc1cc(C(F)(F)F)nn1CC(=O)Nc1ccnc(C(=O)c2cn(C(C)C)c3ncncc23)c1 [Example 69, 2-[5-methyl-3-(trifluoromethyl)-1H-pyrazol-1-yl]-N-(2-{[7-(propan-2-yl)-7H-pyrrolo[2,3-d]pyrimidin-5-yl]carbonyl}pyridin-4-yl)acetamide] | 5.54
C[C@H](CO)n1cc(C(=O)c2cc(NC(=O)Cc3ccc(C(F)(F)F)cc3)ccn2)c2cncnc21 [Example 22, N-[2-({7-[(2R)-1-hydroxypropan-2-yl]-7H-pyrrolo[2,3-d]pyrimidin-5-yl}carbonyl)pyridin-4-yl]-2-[4-(trifluoromethyl)phenyl]acetamide] | 59.5
Cc1ccn(CC(=O)Nc2cc(C(=O)c3cn(C(C)C)c4ncncc34)ccn2)n1 [Example 70, 2-(3-methyl-1H-pyrazol-1-yl)-N-(4-{[7-(propan-2-yl)-7H-pyrrolo[2,3-d]pyrimidin-5-yl]carbonyl}pyridin-2-yl)acetamide] | 144
CC(C)(C)n1cc(C(=O)c2cc(NC(=O)Cn3ccc(C4CC4)n3)ccn2)c2cncnc21 [Example 40, N-{2-[(7-tert-butyl-7H-pyrrolo[2,3-d]pyrimidin-5-yl)carbonyl]pyridin-4-yl}-2-(3-cyclopropyl-1H-pyrazol-1-yl)acetamide] | 8.38
Cc1cc(C(F)(F)F)nn1CC(=O)Nc1ccnc(C(=O)c2cn([C@H](C)CO)c3ncncc23)c1 [Example 21, N-[2-({7-[(2R)-1-hydroxypropan-2-yl]-7H-pyrrolo[2,3-d]pyrimidin-5-yl}carbonyl)pyridin-4-yl]-2-[5-methyl-3-(trifluoromethyl)-1H-pyrazol-1-yl]acetamide] | 95.8
CC(C)n1cc(C(=O)c2ccnc(NC(=O)Cc3ccc(Cl)c(Cl)c3)c2)c2cncnc21 [Example 66, 2-(3,4-Dichlorophenyl)-N-{4-[(7-isopropyl-7H-pyrrolo[2,3-d]pyrimidin-5-yl)carbonyl]pyridin-2-yl}acetamide] | 4.45
C[C@H](CO)n1cc(C(=O)c2cc(NC(=O)Cc3cccc(C(F)(F)F)c3)ccn2)c2cncnc21 [Example 19, N-[2-({7-[(2R)-1-hydroxypropan-2-yl]-7H-pyrrolo[2,3-d]pyrimidin-5-yl}carbonyl)pyridin-4-yl]-2-[3-(trifluoromethyl)phenyl]acetamide] | 97.6
CC(C)(CO)n1cc(C(=O)c2cc(NC(=O)Cn3ccc(C4CC4)n3)ccn2)c2cncnc21 [Example 61, 2-(3-cyclopropyl-1H-pyrazol-1-yl)-N-(2-{[7-(1-hydroxy-2-methylpropan-2-yl)-7H-pyrrolo[2,3-d]pyrimidin-5-yl]carbonyl}pyridin-4-yl)acetamide] | 25.4
C[C@@H](CO)n1cc(C(=O)c2cc(NC(=O)Cn3cc(C(F)(F)F)nn3)ccn2)c2cncnc21 [Example 31, N-[2-({7-[(2S)-1-hydroxypropan-2-yl]-7H-pyrrolo[2,3-d]pyrimidin-5-yl}carbonyl)pyridin-4-yl]-2-[4-(trifluoromethyl)-1H-1,2,3-triazol-1-yl]acetamide] | 78.1
CC(C)(C)n1cc(C(=O)c2cc(NC(=O)Cc3ccc(F)cn3)ccn2)c2cncnc21 [Example 37, N-{2-[(7-tert-butyl-7H-pyrrolo[2,3-d]pyrimidin-5-yl)carbonyl]pyridin-4-yl}-2-(5-fluoropyridin-2-yl)acetamide] | 21
